Results as given in US4822791A, “Pharmaceutical compositions of-2,2-1,1-[bis-2,2'-(3,1-benzoxazin-4-one)9 ethylenes” (priority 1984, dated 1989).
Several values for one entry are separate records, joined by “and”; a condition that tells them apart may be missing. Equal entries are not always repeated.

Legend:
hyaluronidase [1] = molecular target: T1, hyaluronidase (Bos taurus, UniProt Q2YDK3); assay: Anti-hyaluronidase activity (modified Morgan-Elson method); type: biochemical; settings: hyaluronidase 340NF unit/ml; activating agent Compound 48/80 or CaCl2; read-out: IC50
T1 sequence (Q2YDK3 36-553): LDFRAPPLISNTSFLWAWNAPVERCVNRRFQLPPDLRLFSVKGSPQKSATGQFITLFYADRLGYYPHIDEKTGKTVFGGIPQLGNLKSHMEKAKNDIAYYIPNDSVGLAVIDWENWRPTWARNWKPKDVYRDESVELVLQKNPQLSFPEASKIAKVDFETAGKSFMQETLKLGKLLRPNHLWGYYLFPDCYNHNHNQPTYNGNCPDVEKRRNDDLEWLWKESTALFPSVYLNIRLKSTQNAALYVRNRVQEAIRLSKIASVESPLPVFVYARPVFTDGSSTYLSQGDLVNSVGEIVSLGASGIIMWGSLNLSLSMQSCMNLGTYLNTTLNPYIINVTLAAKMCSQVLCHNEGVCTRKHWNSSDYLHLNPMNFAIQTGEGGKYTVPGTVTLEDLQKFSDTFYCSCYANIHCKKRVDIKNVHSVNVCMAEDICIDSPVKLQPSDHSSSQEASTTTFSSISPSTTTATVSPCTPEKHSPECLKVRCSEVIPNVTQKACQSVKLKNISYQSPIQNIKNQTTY
Description: A buffer soluticn of hyaluronidase (0.1 ml) was taken in a test tube and 0.2 ml each of the buffer solution of various compounds in various concentrations was added, and the mixture was preincubated at 37° C. for 20 minutes. Then, an activating agent (Compound 48/80 or CaCl2) (0.2 ml) was added to make the total amount 0.5 ml, which was incubated at 37° C. for 20 minutes. Then, potassium hyaluronate buffer solution (0.5 ml) was added, and the mixture was incubated at 37° C. for 40 minutes. After cooling, the mixture was treated with aqueous solution of 0.4N NaOH (0.2 ml) and neutralized to stop the reaction. The resulting product was subjecred to measurement of OD585 by the modified Morgan-Elson Method. […] (The final ccncentration of hyaluronidase was 340NF unit/ml.) [formula]

[2] = system: experimental ulcer model (Shay); assay: Anti-ulcer activity in experimental ulcer model (Shay); type: in vivo, Wistar strain male rats
Description: Using 5 eight-week old Wistar strain male rats of 1 group, the rats were previously fasted for […]. The compound of an amount proportionate to the body weight based on the body weight after fasting was administered intraduodenally or intraperitoneally.
Each test compound was evenly suspended or dissolved in an aqueous solution of 0.5% CMC ccntaining 0.1% Tween 80, and administered at the rate of 0.5 ml per 100 g of body weight of the animal. To the controls, only the solvent was administered.
Test was carried out in accordance with Shay's method. After 48 hours' fasting, 5 animals per group were subjected to laparotomy under ether anesthesia, the tract between pylorus of stomach and duodenum was ligated, and the solution of the compound was administered intraduodenally (id) or intraperitoneally (ip), followed by suturing the laparotomy part. Eight hours after administration of the compound liquid, each animal was sacrificed by ether anesthesia and stomach was removed. Then, evaluation on the ulcer condition on the inner surface of stomach, and determination of the amount of gastric juice, of acidity by alkali titration, and of pepsin titer based on substrate of hemoglovin were made on the stored gastric juice. With regard to the acidity, gastric juice amount, and pepsin titer, the results were shown in inhibition rate (%) based on the average value of the control groups.

[3] = Acute toxicity LD50 in mice (Test Example 8); settings: mouse, in vivo, one week, Probit method
Description: (§1) ddy-Strain mice (male) and Wistar strain rats were used to obtain LD50 values.
(§2) According to the ordinary procedure, suspension or solution of test sample was administered to the animals. From the number of the died animals until one week after the administration, LD50 values were obtained by Probit method.

[4] = Acute toxicity LD50 in rats (Test Example 8); settings: rat, in vivo, po; one week; Probit method; read-out: LD50 value (mg/kg body weight) Rat p.o.
Description: as §1, §2

[5] = system: mast cell in abdominal cavity; assay: Release of histamine by antigen DNP-Ascaris, mast cell in abdominal cavity (Test Example 12); type: cell-based, rat; settings: Rattus norvegicus, Mast cell; 10^-3 M; read-out: Effect on release of histamine by antigen DNP-Ascaris, Mast cell in abdominal cavity (control 100)
Description: (§3) Collection of mast cells in abdominal cavity and thoracic cavity and sensitizing of cells were conducted in similar manners to those in Test Example 10, respectively.
(§4) (1) Preparation of DNP-Ascaris antiserum was conducted in manner similar to that in Test Example 6.
(§5) This is conducted in amanner similar to that in Test Example 10.
(§6) This is conducted in a manner similar to that in Test Example 10.

[6] = system: Mast cell in thoracic cavity; assay: Release of histamine by antigen DNP-Ascaris, mast cell in thoracic cavity (Test Example 12); type: cell-based; settings: Rattus norvegicus, 10^-3 M, read-out: Effect on release of histamine by antigen DNP-Ascaris, Mast cell in thoracic cavity (control 100)
Description: as §3, §4, §5, §6

[7] = system: passive cutaneous anaphylaxis (PCA); assay: Anti-passive cutaneous anaphylaxis (PCA) activity in rats (Test Example 2); type: in vivo, Wistar strain rats; settings: for inhibition in vivo at 100 mg/kg: Rattus norvegicus, 100 mg/kg PO, N 10
In short: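 Antiserum from Wistar rats sensitized with ovalbumin (alum plus B. pertussis adjuvant) was diluted 16- or 32-fold and injected into dorsal skin of naive rats, which were held 48 h. Compound was given orally 1 h before i.v. ovalbumin plus Evans blue.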

[8] = system: anaphylaxis reaction to inhalated antigen; assay: Antigen inhalation test on passive sensitized guinea pig (experimental asthma model); type: in vivo; settings: 5 mg/kg iv
Description: The test compound and Tranilast were respectively suspended at the time of use in 5% gum arabic solution containing 0.1% Tween 80 at the rate of 40 mg/ml, and were perorally administered at the rate of 0.5 ml per 100 g body weight of the animal.
DSCG was dissolved at the time of use in physiological saline solultion for injection at the rate of 5.0 mg/ml, and was intravenously injected at the rate of 0.1 ml per 100 g body weight of the animal.
Anti-ovalbumin rabbit serum diluted with physiological saline solution for injection so as tc contain anti-ovalbumin rabbit antibody at the rate of 0.187 mg N/ml was intravenously administered to guinea pig at the rate of 0.1 ml per 100 g of body weight and it was passively sensitized.
Twenty-four hours later, the suspension of the compound prepared in (1) above was perorally or intravenously administered to the animal. The animal was put in the inhalation chamber one hour after the administration in case of the peroral administration and five minutes after the administration in case of the intravenous administration, and 2% physiological saline solution of antigen ovalbumin was inhaled by spraying. Over 10 minutes' period from the time immediately after the forced inhalation, the time until its fall attributed to anaphylaxis reaction was recorded, and the numbers of alive and dead animals after lapse of 10 minutes were also counted.

[9] = system: passive cutaneous anaphylaxis (PCA); assay: Anti-passive cutaneous anaphylaxis activity (PCA) in rats (Test Example 9); type: in vivo; settings: Rattus norvegicus, po, 100 mg/kg, 10 animals
Description: Wistar strain rats were sensitized with ovalbumin using aluminium hydroxide gel and Bordetella Pertussis vaccine as adjuvants. Dilutions of antiserum (16-fold and 32-fold) obtained by collecting blood samples 14 days later were administered subcutaneously in the dorsal skin of the rats of the same strain at the rate of 0.1 ml per spot, and the rats were grown for 48 hours. One hour after peroral administration of the sample solution, a mixture of antigen ovalbumin and Evans-blue dye was administered to the tail venous of the animal according to the ordinary procedure. Thirty minutes later, the animals were sacrificed by exsanguination, and the areas of blue spots (long diameter×short diameter) eliciting on the portion of the antiserum injection at the dorsal skin were measured to obtain the rate of inhibition based on the average value shown by the control animals.
This test was conducted in a manner similar to that in Test Example 2, except that the dilutions of antiserum were 12- and 24-folds.

[10] = system: mast cell in abdominal cavity; assay: Histamine release by antigen DNP-Ascaris, mast cell in abdominal cavity (Test Example 10); type: cell-based, rat; settings: Rattus norvegicus, Mast cell, 20 min; 10^-3 M; read-out: released amount of histamin, Mast cell in abdominal cavity (control shown as 100)
Description: (§7) Examination was made cn the activity of inhibition of histamine release from mast cell by antigen-antibody reaction.
(§8) Preparation of DNP-Ascaris antiserum was conducted in a manner similar to that in Test Example 6.
(§9) Heparin-containing PBS was injected into the abdominal cavity of rat which was sacrificed by bleeding, after which the abdomen was well massaged, and then peritoneal exudate was sampled. The same liquid was also injected into the thoracic cavity, and after shaking the breast for several minutes, the thoracic cavity liquid was sampled, which was purified by washing several times by centrifugation. The number of the mast cells contained in this liquid was measured and adjusted to a designated concentration. (Mast cells, 8.0×10^4 cells/ml).
(§10) To the cell suspension (4 ml, 9×10^5 cells/ml), anti-DNP-Ascaris rat serum (PCA titer, 32) (4 ml) was added, and the mixture was incubated in the presence of heparin at 37° C. for 2.5 hours. To the solution, 70 microgramms/ml phosphatidylserin PBS solution (0.5 ml) was added and the mixture was incubated at 37° C. for 12 minutes, after which 140 microgramms/ml antigen DNP-Ascaris PBS solution (0.5 ml) was added and the mixture was incubated further for 20 minutes.
After completion of the reaction, the reaction liquid was centrifuged (500 G, 10 min.) to obtain supernatant solution, and histamin in the supernatant solution was subjected to fluorometry by orthophthalal aldehyde method. The released amount of histamin in the control was shown as 100.

[11] = system: Mast cell in thoracic cavity; assay: Histamine release by antigen DNP-Ascaris, mast cell in thoracic cavity (Test Example 10); type: cell-based; settings: Rattus norvegicus, 20 min, 10^-3 M, read-out: released amount of histamin, Mast cell in thoracic cavity (control shown as 100)
Description: as §7, §8, §9
as §10, with “minutes. […]” for “minutes.”

[12] = system: mast cell in abdominal cavity; assay: Release of histamine by dextran (T-500), mast cell in abdominal cavity (Test Example 12); type: cell-based, rat; settings: Rattus norvegicus, Mast cell, 0.25 h, read-out: Effect on release of histamine by dextran (T-500), Mast cell in abdominal cavity (control 100)
Description: as §3
(§11) The sample solution was treated with 105 microgramms/ml phosphatidylserin PBS solution (0.5 ml) and incubated at 37° C. for 30 minutes, followed by addition of 25 mg/ml dextran (T-500) PBS solution (0.5 ml) and further incubation for 15 minutes.
as §6

[13] = system: Mast cell in thoracic cavity; assay: Release of histamine by dextran (T-500), mast cell in thoracic cavity (Test Example 12); type: cell-based, rat; settings: Rattus norvegicus, Mast cell, 0.25 h; 10^-3 M; read-out: Effect on release of histamine by dextran (T-500), Mast cell in thoracic cavity (control 100)
Description: as §3, §11, §6

hyaluronidase [14] = settings: known from the literature; cited from earlier work

COc1ccc(C=C(C(=O)Nc2ccccc2C(=O)O)C(=O)Nc2ccccc2C(=O)O)cc1OC [Compound 20, 2,2'-[[2-(3,4-dimethoxy)phenylmethylene-1,3-dioxo-1,3-propanediyl]diimino]bisbenzoic acid]
IC50 (hyaluronidase [1]): 40 µM
Inhibition % Gastric Acidity ([2]; id 100 mg/kg): 64.5%
Inhibition % secretion amount of gastric juice ([2]; id 100 mg/kg): 28.1%
Inhibition % total pepsin titer ([2]; id 100 mg/kg): 42.5%
Inhibition % Gastric Acidity ([2]; id 200 mg/kg): 99.5%
Inhibition % secretion amount of gastric juice ([2]; id 200 mg/kg): 59.0%
Inhibition % total pepsin titer ([2]; id 200 mg/kg): 69.3%
Inhibition % Gastric Acidity ([2]; ip 10 mg/kg): 52.3%
Inhibition % secretion amount of gastric juice ([2]; ip 10 mg/kg): 26.3%
Inhibition % total pepsin titer ([2]; ip 10 mg/kg): 31.4%
Inhibition % Gastric Acidity ([2]; ip 50 mg/kg): 88.0%
Inhibition % secretion amount of gastric juice ([2]; ip 50 mg/kg): 70.9%
Inhibition % total pepsin titer ([2]; ip 50 mg/kg): 60.7%
LD50 at 168 h ([3]; iv, read-out: LD50 value (mg/kg body weight) Mouse i.v.): 225 mg/kg
LD50 at 168 h ([3]; po, read-out: LD50 value (mg/kg body weight) Mouse p.o.): > 10000 mg/kg
LD50 at 168 h [4]: > 10000 mg/kg

COc1ccc(C=C(C(=O)Nc2cc(Cl)ccc2C(=O)O)C(=O)Nc2cc(Cl)ccc2C(=O)O)cc1OC [Compound 21]
IC50 (hyaluronidase [1]): 15 µM
activity at 1000 µM [5]: 48.3%
activity at 1000 µM [6]: 73%

O=C(O)c1cc(=O)c2c(OCC(O)COc3cccc4oc(C(=O)O)cc(=O)c34)cccc2o1 [DSCG, disodium cromoglicate, reference compound]
inhibition in vivo at 100 mg/kg ([7]; read-out: Average Inhibition Rate (%) Antiserum Dilution: × 16): 0.1%
inhibition in vivo at 100 mg/kg ([7]; read-out: Average Inhibition Rate (%) Antiserum Dilution: × 32): 0.3%
anti-PCA activity by peroral administration (in words) ([7]; peroral): no activity
Extended rate (%) [8]: 23.9%
Average time for falling Mean ± S.E. ([8]; N 5): 192.5 ± 20.3 s
Required time (sec.) for falling and Number of death (#), single animals ([8]; N 5, observed 10 minutes, # shows death): 142 s and 188 s and 199 s and 241 s and > 600 s
inhibition in vivo at 100 mg/kg ([9]; read-out: Inhibition, Anti-serum Dilution: × 12): 0%
inhibition in vivo at 100 mg/kg ([9]; read-out: Inhibition, Anti-serum Dilution: × 24): 0%
activity at 1000 µM [10]: 76.8%
activity at 1000 µM [11]: 105%
activity at 1000 µM ([12]; 10^-3 M): 60%
activity at 100 µM ([12]; 10^-4 M): 52.9%
activity at 1000 µM [13]: 42.2%
activity at 1000 µM [5]: 76.8%
activity at 1000 µM [6]: 105%
effect on hyaluronidase activity (in words) (hyaluronidase [14]): inhibit hyaluronidase activity
